Data as given in patent US12582625B2, “Methods for treating neuroblastoma” (priority 2015, dated 2026).
Several values for one entry are separate records, joined by “and”; a condition that tells them apart may be missing. Identical values can stand only once.

Key:
[1] = test system: high-risk neuroblastoma in complete remission; assay: NMTRC003 phase II prevention trial: event free and overall survival; type: in vivo, human
Text: Study Design. This was an open label, single agent, multicenter clinical trial for patients with high-risk neuroblastoma in complete remission at the completion of standard therapy. […] Prior to study entry, written informed consent was obtained from the subjects' parent(s) or guardian(s) and, when appropriate, written assent was obtained from subjects. ClinicalTrials.gov Identifiers: NCT01586260/NCT02395666.
Subjects were required to have histologically confirmed International Neuroblastoma Staging System (INSS) high-risk neuroblastoma at the time of diagnosis. Subjects must have completed standard high-risk neuroblastoma (HRNB) therapy with 5-7 cycles of induction chemotherapy, surgical resection of primary tumor (if feasible), consolidative therapy with high-dose chemotherapy/autologous stem cell support and radiation therapy as indicated, and anti-GD2 antibody therapy with isotretinoin for up to 6 cycles. […] To be considered in complete remission, subjects had to have no radiographic evidence for persistent neuroblastoma by CT or MRI (and by metaiodobenzylguanidine (MIBG) in subjects whose tumors were originally MIBG avid), histologically negative bone marrow aspirate/biopsy, and normal urinary catecholamines as assessed by ratios of vanillylmandelic acid and homovanillic acid to creatinine. Subjects with residual masses or bone changes visible on CT or MRI could still be considered in CR if the lesions were negative by both MIBG and PET scans.
(§1) Dosing diaries were required to be completed for each cycle. […] The primary endpoint was Event Free Survival (EFS); secondary objectives included Overall Survival (OS) and safety. EFS was defined as the period from the first day of administration of study drug to the first occurrence of relapse or death, and OS was defined as the first day of administration of study drug until death; subjects without an event were censored at the time of last contact. Safety analysis was conducted on all subjects who received at least one dose of study drug, and included the frequency, grading, expectedness and attribution of all adverse events as well as dose interruptions, dose reductions, and treatment discontinuation.
Statistical Analysis: Estimation and hypothesis testing based on survival data. Event-free and overall survival were estimated using the method of Kaplan and Meier (Meier, 1958) while standard errors were estimated using Greenwood's formula. […] However, NMTRC003 patients enrolled on ANBL0032 represent a subset of the ANBL0032 population, patients event-free at the start of NMTRC003 therapy (6-10 months after the start of ANBL0032 therapy) (Yu et al., 2010). Therefore, it was necessary to adjust the published ANBL0032 EFS using the definition of conditional probability for a direct comparison. […]

[2] = NMTRC003 phase II prevention trial: adverse events; type: in vivo
Protocol: as §1

[3] = human, in vivo, 27 4-week cycles

## NCCCC(N)(C(=O)O)C(F)F (stereo not drawn) [DFMO, 2,5-diamino-2-(difluoromethyl) pentanoic acid]
[1]; ITT population (91)
  subjects who have relapsed to date: 6
[1]; follow up of up to 3.5 years
  relapses after completion of DFMO therapy (all 27 cycles): no late relapses and None
[1]; n=4 of 52 with known Curie score, ANBL0032 followed by DFMO
  outcome of subjects with Curie score greater than 0 prior to immunotherapy: remain in remission
[1]; subjects previously enrolled on ANBL0032 (n=74)
  2-year event free survival (EFS): 95% (±3%) and 95% (+/−3%)
[2]; DFMO 500-1000 mg/m^2 BID
  patients with grade 2-3 transaminitis (most common toxicity): < 10%
  tolerability: well tolerated
[2]; Stratum 1, n = 94
  ALT elevation Grade 2, patients (%): 3 (3%)
  ALT elevation Grade 3, patients (%): 5 (5%)
  ALT elevation Grade 4, patients (%): 0
  ALT elevation Grade 5, patients (%): 0
  AST elevation Grade 2, patients (%): 3 (3%)
  AST elevation Grade 3, patients (%): 4 (4%)
  AST elevation Grade 4, patients (%): 0
  AST elevation Grade 5, patients (%): 0
  Agitation Grade 2, patients (%): 1 (1%)
  Agitation Grade 3, patients (%): 0
  Agitation Grade 4, patients (%): 0
  Agitation Grade 5, patients (%): 0
  Alopecia Grade 2, patients (%): 1 (1%)
  Alopecia Grade 3, patients (%): 0
  Alopecia Grade 4, patients (%): 0
  Alopecia Grade 5, patients (%): 0
  Anemia Grade 2, patients (%): 4 (4%)
  Anemia Grade 3, patients (%): 0
  Anemia Grade 4, patients (%): 0
  Anemia Grade 5, patients (%): 0
  Anorexia Grade 2, patients (%): 1 (1%)
  Anorexia Grade 3, patients (%): 0
  Anorexia Grade 4, patients (%): 0
  Anorexia Grade 5, patients (%): 0
  Diarrhea Grade 2, patients (%): 5 (5%)
  Diarrhea Grade 3, patients (%): 0
  Diarrhea Grade 4, patients (%): 0
  Diarrhea Grade 5, patients (%): 0
  Fever Grade 2, patients (%): 2 (2%)
  Fever Grade 3, patients (%): 0
  Fever Grade 4, patients (%): 0
  Fever Grade 5, patients (%): 0
  Hearing Loss Grade 2, patients (%): 2 (2%)
  Hearing Loss Grade 3, patients (%): 4 (4%)
  Hearing Loss Grade 4, patients (%): 0
  Hearing Loss Grade 5, patients (%): 0
  Hypoglycemia Grade 2, patients (%): 0
  Hypoglycemia Grade 3, patients (%): 0
  Hypoglycemia Grade 4, patients (%): 1 (1%)
  Hypoglycemia Grade 5, patients (%): 0
  Hypokalemia Grade 2, patients (%): 0
  Hypokalemia Grade 3, patients (%): 2 (2%)
  Hypokalemia Grade 4, patients (%): 0
  Hypokalemia Grade 5, patients (%): 0
  INR Elevated Grade 2, patients (%): 1 (1%)
  INR Elevated Grade 3, patients (%): 0
  INR Elevated Grade 4, patients (%): 0
  INR Elevated Grade 5, patients (%): 0
  Infection, Other Grade 5, patients (%): 0
  Infection, middle ear Grade 5, patients (%): 0
  Neutrophil count decrease Grade 2, patients (%): 4 (4%)
  Neutrophil count decrease Grade 3, patients (%): 3 (3%)
  Neutrophil count decrease Grade 4, patients (%): 0
  Neutrophil count decrease Grade 5, patients (%): 0
  Pain Grade 2, patients (%): 2 (2%)
  Pain Grade 3, patients (%): 0
  Pain Grade 4, patients (%): 0
  Pain Grade 5, patients (%): 0
  Platelet count decrease Grade 2, patients (%): 2 (2%)
  Platelet count decrease Grade 3, patients (%): 0
  Platelet count decrease Grade 4, patients (%): 0
  Platelet count decrease Grade 5, patients (%): 0
  Post Nasal Drip Grade 2, patients (%): 1 (1%)
  Post Nasal Drip Grade 3, patients (%): 0
  Post Nasal Drip Grade 4, patients (%): 0
  Post Nasal Drip Grade 5, patients (%): 0
  Rash Grade 2, patients (%): 1 (1%)
  Rash Grade 3, patients (%): 0
  Rash Grade 4, patients (%): 0
  Rash Grade 5, patients (%): 0
  Weight Gain Grade 2, patients (%): 1 (1%)
  Weight Gain Grade 3, patients (%): 0
  Weight Gain Grade 4, patients (%): 0
  Weight Gain Grade 5, patients (%): 0
  White blood cell decreased Grade 2, patients (%): 2 (2%)
  White blood cell decreased Grade 3, patients (%): 0
  White blood cell decreased Grade 4, patients (%): 0
  White blood cell decreased Grade 5, patients (%): 0
[2]; among patients with pre-existing hearing loss, all returned to baseline after holding medication
  patients with an increase in hearing loss: 4 patients
[2]; [3]
  Infection, Other Grade 2, patients (%): 2 (2%)
  Infection, Other Grade 3, patients (%): 0
  Infection, Other Grade 4, patients (%): 0
  Infection, middle ear Grade 2, patients (%): 2 (2%)
  Infection, middle ear Grade 3, patients (%): 0
  Infection, middle ear Grade 4, patients (%): 0
[2]; over 2 years
  population that did not report any related adverse events: 67%
[2]; whole study
  serious adverse events (SAE): only one SAE involving hypoglycemia
